Measured values: US12371676B2, “Circularly permutated haloalkane transferase fusion molecules” (MAX-PLANCK-GESELLSCHAFT ZUR FÖRDERUNG DER WISSENSCHAFTEN E. …, priority 2019, dated 2025)

Columns and labels:
[1] = FKBP/FRB model system, FP labelling kinetics with or without rapamycin; assay type: biochemical; conditions: in combination with a FKPB/FRB sensor system; versus PEP1
Method: FIG. 13 Model system to test split HaloTag™ performance: Left: Scheme explaining the FKBP/FRB based model system. cpHaloΔ and the 9mer peptide are fused to FKBP and FRB, respectively, to render the split complementation and activity dependent on their rapamycin dependent interaction. Right: Labelling kinetics of the model system were followed via a fluorescence polarization assay in the presence or absence of rapamycin (Rap). Halo-TMR was used as substrate and each experiment was performed in triplicate.
FIG. 14 Impact of different flexible linkers in the FKBP/FRB model system: Labelling kinetics of split HaloTag™ fused to FKBP and FRB using different flexible linkers were observed via a fluorescence polarization assay in the presence or absence of rapamycin. Halo-TMR was used as substrate and each experiment was performed in triplicate.
The inventors further tested the performance of the split-HaloTag system of the invention for labelling protein-protein interactions in a simple model system. They used the strong interaction of the proteins FKBP and FRB, which is conditional on the presence of the small-molecule drug rapamycin. […] Different flexible linkers (1-3 times GGS) were placed between the interacting proteins (FKBP/FRP) and the split HaloTag™ fragments to assess the effect of linker length and to find well performing linker combinations (FIG. 14). […]

[2] = FP kinetic assay of calcium integrators (split integrator, CaProLa); assay type: biochemical; conditions: in combination with the calmodulin/M13 sensor system; versus PEP1
Method: FIG. 6 M13—cpHaloΔ9mer and 9mer—CaM linker length optimization: All combinations of split integrators composed of M13—(GGS)1-3—cpHaloΔ9mer and 9mer—(GGS)1-3—CaM were tested in an FP kinetic assay in the presence of calcium or EGTA.
FIG. 8 Performance of CaProLa constructs with different M13—CaM linkers: FP kinetics of different CaProLa constructs and the split integrator under four conditions: in the presence of calcium (red), in the absence of calcium (purple), in the absence of calcium but spiked with calcium after 1 h (cyan), in the presence of calcium, followed by an EGTA spike to stop the reaction, followed by a calcium spike to restart the reaction (green). Small arrows indicate the EGTA and calcium spikes. Curves in the presence of calcium (red) were fitted to a second order reaction rate equation to determine the rate constants. All experiments were performed in triplicates. GGTGGS: SEQ ID NO 027.
FIG. 11 Performance of second generation CaProLa constructs: A fluorescence polarization kinetic assays with Halo-TMR of CaProLa 2.1-2.3 were performed under four conditions: in the presence of calcium (red), in the absence of calcium (purple), in the absence of calcium but spiked with calcium after 1 h (cyan), in the presence of calcium, followed by an EGTA spike to stop the reaction, followed by a calcium spike (green). Small arrows indicate the EGTA and calcium spikes. […]

Substance: PEP2: 10mer Peptide 145-ARETFQAFRT-154, second partial effector sequence with extra C-terminal threonine (partial sensor sequence)
- effect of the extra threonine on reaction speed [1]: does not have much effect
- effect of the extra threonine on reaction speed [2]: significant increase in the reaction speed
